According to ChEMBL document CHEMBL5614443, “Hybrids of 3-Hydroxypyridin-4(1H)-ones and Long-Chain 4-Aminoquinolines as Potent Biofilm Inhibitors of Pseudomonas aeruginosa Potentiate Tobramycin and Polymyxin B Activity” (J Med Chem, 2024):
The source made the active and inactive calls. No cut-off for these calls is given here.

What was measured:
[1] = tested on: Pseudomonas aeruginosa; assay: Antibacterial activity against Pseudomonas aeruginosa PAO1 assessed as inhibition of bacterial growth incubated for 24 hrs by CLSI protocol based method; format: functional
[2] = tested on: Pseudomonas aeruginosa; assay: Antibiofilm activity against Pseudomonas aeruginosa PAO1 assessed as inhibition of biofilm formation incubated for 24 hrs by crystal violet staining based analysis; format: functional, organism-based; conditions: PAO1, 24 h
[3] = tested on: Pseudomonas aeruginosa; assay: Induction of Fe3+ chelating activity in Pseudomonas aeruginosa PAO1 assessed as increase in pyoverdine production at 2.5 to 50 uM incubated for 24 hrs by fluorescence microplate reader; conditions: dose 2.5-50 µM
[4] = tested on: Pseudomonas aeruginosa; assay: Induction of Fe3+ chelating activity in Pseudomonas aeruginosa PAO1 assessed as increase in pyochelin production at 2.5 to 50 uM incubated for 24 hrs by fluorescence microplate reader; conditions: dose 2.5-50 µM
[5] = tested on: Pseudomonas aeruginosa; assay: Antibacterial activity against Pseudomonas aeruginosa PAO1 infected in Caenorhabditis elegans assessed as reduction in worm mortality by measuring survival at 1/2 MIC by bright-field microscopic analysis (reference value: 24 hrs); format: functional
[6] = tested on: Pseudomonas aeruginosa; assay: Antibacterial activity against Pseudomonas aeruginosa PAO1 assessed as bacterial survival rate at 1/2 MIC incubated for 24 hrs by LB agar plate method relative to control; format: functional
[7] = Hemolytic activity in rabbit erythrocytes assessed as hemolysis rate at 200 uM incubated for 2 hrs by microplate reader analysis (reference value: 100 %); format: toxicity, cell-based, Oryctolagus cuniculus, Erythrocyte; conditions: read-out: Activity
[8] = Inhibition of quorum sensing system in wildtype Pseudomonas aeruginosa PAO1 assessed as inhibition of pyocyanin production incubated for 24 hrs by absorbance based analysis
[9] = Cytotoxicity against African green monkey Vero cells assessed as reduction in cell viability incubated for 24 hrs by MTT assay; format: toxicity, cell-based; conditions: chlorocebus sabaeus
[10] = Toxicity in Caenorhabditis elegans assessed as effect on survival at 100 uM measured at 48 hrs by bright-field microscopic analysis
[11] = Inhibition of quorum sensing system in wildtype Pseudomonas aeruginosa PAO1 assessed as inhibition of rhamnolipid production incubated for 24 hrs by absorbance based microtiter plate reader analysis
[12] = Inhibition of quorum sensing system in wildtype Pseudomonas aeruginosa PAO1 assessed as inhibition of elastase production incubated for 24 hrs by elastin-congo red dye based absorbance assay
[13] = Metal chelating activity assessed as Fe3+ chelation by measuring iron chelation constant by fluorescence competition assay
[14] = tested on: Pseudomonas aeruginosa; assay: Antibiofilm activity against Pseudomonas aeruginosa PAO1 assessed as decrease in biofilm formation incubated for 24 hrs by LIVE/DEAD BacLight staining based 3D confocal laser scanning microscopy; format: functional, organism-based; conditions: dose 1-10 µM
[15] = tested on: Pseudomonas aeruginosa; assay: Antibacterial activity against Pseudomonas aeruginosa PAO1 assessed as inhibition of bacterial growth at 0.1 to 50 uM measured upto 24 hrs by CLSI protocol based method; format: functional, organism-based; conditions: dose 0.1-50 µM

| Compound | MIC [1] [µM] | IC50 [2] [µM] | further results |
| --- | --- | --- | --- |
| Cc1cc(=O)c(O)c(CNCCCCCCCCNc2ccnc3cc(Br)ccc23)n1C | ≥ 512 | > 50 |  |
| CCCCCCCc1[nH]c2ccccc2c(=O)c1O |  |  | Activity [3]: Active |
| Cc1cc(=O)c(OCc2ccccc2)c(C(=O)NCCCCCCCCNc2ccnc3cc(Cl)ccc23)n1C | ≥ 512 | > 50 | Activity [4]: Active; Activity [3]: Active |
| Cc1cc(=O)c(OCc2ccccc2)c(CNCCCCCCCCNc2ccnc3cc(Cl)ccc23)[nH]1 | ≥ 512 | > 50 |  |
| Cc1cc(=O)c(O)c(CNCCCCCCCCNc2ccnc3cc(F)ccc23)n1C | ≥ 512 | > 50 |  |
| Cc1cc(=O)c(O)c(CNCCCCCCCCNc2ccnc3cc(C(F)(F)F)ccc23)n1C | ≥ 512 | 12.9 |  |
| Cc1cc(=O)c(O)c(CNCCCCNc2ccnc3ccccc23)n1C | ≥ 512 | > 50 |  |
| Cc1cc(=O)c(O)c(CNCCCCCCCCCCNc2ccnc3cc(Cl)ccc23)n1C | ≥ 512 | > 50 |  |
| Cc1cc(=O)c(O)cn1CCCCCCCCNc1ccnc2cc(Cl)ccc12 | ≥ 512 | 25.6 |  |
| Cc1cc(=O)c(O)c(CNCCCCCCNc2ccnc3cc(Cl)ccc23)n1C | ≥ 512 | 18.2 |  |
| Cc1cc(=O)c(O)c(CNCCCNc2ccnc3ccccc23)n1C | ≥ 512 | > 50 |  |
| CCn1c(C)cc(=O)c(O)c1CNCCCCCCCCNc1ccnc2ccccc12 | ≥ 512 | > 50 |  |
| O=c1cc(CNCCCCCCCCNc2ccnc3ccccc23)n(O)cc1O | ≥ 512 | > 50 |  |
| NC[C@H]1O[C@H](O[C@H]2[C@H](O)[C@@H](O[C@H]3O[C@H](CO)[C@@H](O)[C@H](N)[C@H]3O)[C@H](N)C[C@@H]2N)[C@H](N)C[C@@H]1O [TOBRAMYCIN] |  |  | Survival [5]: 72 h; Survival [6]: ~20% |
| Cn1cc(O)c(=O)cc1CNCCCCCCCCNc1ccnc2cc(Cl)ccc12 | ≥ 512 | > 50 |  |
| O=c1cc(CNCCCCCCCCNc2ccnc3cc(Cl)ccc23)n(O)cc1O | ≥ 512 | > 50 |  |
| Cc1cc(=O)c(O)cn1CCCCCCCCNc1ccnc2ccccc12 | ≥ 512 | > 50 |  |
| Cc1cc(=O)c(O)c(CNCCCCCCCCNc2ccnc3ccccc23)n1C | ≥ 512 | 8.1 |  |
| CCCCCn1c(C)cc(=O)c(O)c1CNCCCCCCCCNc1ccnc2cc(Cl)ccc12 | ≥ 512 | > 50 |  |
| Cc1cc(=O)c(O)c(C(=O)NCCCCCCCCNc2ccnc3ccccc23)n1C | ≥ 512 | 13 |  |
| NCCCCCCCCNc1ccnc2cc(Cl)ccc12 | ≥ 512 | > 50 | hemolysis at 2 h, 200 µM [7]: < 1.5%; IC50 [8]: > 50 µM; Activity [4]: Active; CC50 at 24 h [9]: 189 µM; Activity [3]: Active; Activity [10]: Toxic; IC50 [11]: > 50 µM; IC50 [12]: 43.5 µM |
| Cc1cc(=O)c(O)c(CNCCCCCCCCNc2ccnc3c(Cl)cccc23)n1C | ≥ 512 | > 50 |  |
| COc1ccc2c(NCCCCCCCCNCc3cc(=O)c(O)cn3C)ccnc2c1 | ≥ 512 | > 50 |  |

| Compound | MIC [1] [µM] | IC50 [2] [µM] | further results |
| --- | --- | --- | --- |
| Cc1cc(=O)c(O)c(CNCCCCCNc2ccnc3ccccc23)n1C | ≥ 512 | > 50 |  |
| Cc1c(O)c(=O)ccn1C |  |  | pFe3+ [13]: 21.7 |
| CC[C@H]1OC(=O)[C@H](C)[C@@H](O[C@H]2C[C@@](C)(OC)[C@@H](O)[C@H](C)O2)[C@H](C)[C@@H](O[C@@H]2O[C@H](C)C[C@H](N(C)C)[C@H]2O)[C@](C)(O)C[C@@H](C)CN(C)[C@H](C)[C@@H](O)[C@]1(C)O [AZITHROMYCIN] |  | 6.6 |  |
| Cc1cc(=O)c(O)c(CNCCCCCCCCNc2ccnc3ccc(Cl)cc23)n1C | ≥ 512 | 18.3 |  |
| Cc1cc(=O)c(O)c(CNCCCCCCCNc2ccnc3ccccc23)n1C | ≥ 512 | 13.2 |  |
| Cc1cc(=O)c(O)c(CNCCCCCCCCCCNc2ccnc3ccccc23)n1C | ≥ 512 | 32.6 |  |
| CCCn1c(C)cc(=O)c(O)c1CNCCCCCCCCNc1ccnc2ccccc12 | ≥ 512 | > 50 |  |
| CCCCn1c(C)cc(=O)c(O)c1CNCCCCCCCCNc1ccnc2cc(Cl)ccc12 | ≥ 512 | 14.1 |  |
| Cc1cc(=O)c(O)c(CNCCCCCCCCNc2ccnc3cccc(Cl)c23)n1C | ≥ 512 | > 50 |  |
| Cc1cc(=O)c(O)c(CNCCCCCCNc2ccnc3ccccc23)n1C | ≥ 512 | 16.2 |  |
| COc1ccc2c(NCCCCCCCCNCc3c(O)c(=O)cc(C)n3C)ccnc2c1 | ≥ 512 | 16 |  |
| Cc1cc(=O)c(O)c(CNCCCCCCCNc2ccnc3cc(Cl)ccc23)n1C | ≥ 512 | 9.4 |  |
| POLYMYXIN B |  |  | Survival [5]: 88 h; Survival [6]: 18% |
| CCCCn1c(C)cc(=O)c(O)c1CNCCCCCCCCNc1ccnc2ccccc12 | ≥ 512 | 8.9 |  |
| Cc1cc(=O)c(O)c(CNCCCCCCCCNc2ccnc(Cl)c2)n1C | ≥ 512 | > 50 |  |
| Cc1cc(=O)c(O)c(CNCCCCCCCCNc2ccncc2)n1C | ≥ 512 | > 50 |  |
| Cc1cc(=O)c(O)c(CNCCNc2ccnc3ccccc23)n1C | ≥ 512 | > 50 |  |
| COc1ccc2c(NCCCCCCCCNC(=O)c3c(O)c(=O)cc(C)n3C)ccnc2c1 | ≥ 512 | > 50 |  |
| Cn1cc(O)c(=O)cc1CNCCCCCCCCNc1ccnc2ccccc12 | ≥ 512 | > 50 |  |
| Cc1cc(=O)c(O)c(CNCCCCCCCCNc2ccnc3cc(Cl)ccc23)n1C | ≥ 512 | 5.4 | IC50 [8]: 23.7 µM; Activity [14]: Dose-Dependent Effect; Activity [15]: inactive; IC50 [11]: > 50 µM; IC50 [12]: 30.9 µM |
| COCCn1c(C)cc(=O)c(O)c1CNCCCCCCCCNc1ccnc2ccccc12 | ≥ 512 | > 50 |  |
| CCCCCn1c(C)cc(=O)c(O)c1CNCCCCCCCCNc1ccnc2ccccc12 | ≥ 512 | 23.6 |  |
